Results: patent publication US5576439A, “Dihydropyridinecarboxylic acid anhydrides” (Ciba-Geigy Corporation, priority 1994, dated 1996)

Tests used:
[1] = system: increase in blood pressure induced by ET-1; test: Effect on pressor response to ET-1 in the conscious rat; assay type: in vivo; details: 10 mg/Kg i.v., 5 minute pretreatment, ET-1 0.25 nmol/kg i.v.
Protocol: (§1) The cardiovascular effects of ET-1 inhibitory activity can be determined as follows:
(§2) A 30 minute pretreatment with test compound (0.1-10 μM) is utilized to determine inhibition of the ET-1 induced contractile response in isolated rabbit aorta. The maximal response to ET-1 is measured at 0.1, 1 and 10 μM, respectively. Similar pretreatment with test compound (1 μM) is utilized to determine the effects of phenylephrine or KCl induced contraction, an indication that the specificity of hemodynamic affects is caused by intereaction with the endothelin receptor. A 5 minute pretreatment with test compound (10 mg/kg, i.v.) is also used to assess the effects on pressor response and attenuation of the depressor response to ET-1 (0.25 nmol/kg iv.) in the conscious rat.

ETB receptor = molecular target: T1, ETB receptor (Rattus norvegicus, UniProt P21451); test: Inhibition of [^125 I] ET-1 binding to rat cerebellum membranes
T1 construct: rat cerebellum membranes (ETB receptor); from tissue; host or cells: rat cerebellum membranes
T1 sequence (P21451 27-442): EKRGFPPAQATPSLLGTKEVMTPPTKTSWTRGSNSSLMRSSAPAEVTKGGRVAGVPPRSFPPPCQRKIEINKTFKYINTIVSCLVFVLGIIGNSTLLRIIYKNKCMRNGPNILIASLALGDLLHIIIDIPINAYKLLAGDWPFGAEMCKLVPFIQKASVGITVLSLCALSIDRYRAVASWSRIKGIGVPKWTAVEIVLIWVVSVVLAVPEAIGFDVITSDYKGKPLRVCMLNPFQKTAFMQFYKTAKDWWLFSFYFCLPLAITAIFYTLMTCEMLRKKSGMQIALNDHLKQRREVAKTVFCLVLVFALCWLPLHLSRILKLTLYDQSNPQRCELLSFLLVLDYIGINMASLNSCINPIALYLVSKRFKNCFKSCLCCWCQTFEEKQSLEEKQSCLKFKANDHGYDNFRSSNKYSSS
Protocol: (§3) Inhibition of the binding of [^125 I] ET-1 to porcine thoracic aorta membranes (ETA receptor) is determined according to Cioffi et al, J. Pharmacol. Exp. Ther. 262, 611 (1992); similarly inhibition of binding of [^125 I] ET-1 to rat cerebellum membranes (ETB receptor).

ETA receptor [2] = molecular target: T2, ETA receptor (Rattus norvegicus, UniProt P26684); test: ETA receptor inhibitory activity by release of [^3 H]-inositol from labeled A7r5 cells; assay type: cell-based
T2 construct: labeled A7r5 cells; endogenous in cells; host or cells: A7r5 cells
T2 sequence (P26684 21-426): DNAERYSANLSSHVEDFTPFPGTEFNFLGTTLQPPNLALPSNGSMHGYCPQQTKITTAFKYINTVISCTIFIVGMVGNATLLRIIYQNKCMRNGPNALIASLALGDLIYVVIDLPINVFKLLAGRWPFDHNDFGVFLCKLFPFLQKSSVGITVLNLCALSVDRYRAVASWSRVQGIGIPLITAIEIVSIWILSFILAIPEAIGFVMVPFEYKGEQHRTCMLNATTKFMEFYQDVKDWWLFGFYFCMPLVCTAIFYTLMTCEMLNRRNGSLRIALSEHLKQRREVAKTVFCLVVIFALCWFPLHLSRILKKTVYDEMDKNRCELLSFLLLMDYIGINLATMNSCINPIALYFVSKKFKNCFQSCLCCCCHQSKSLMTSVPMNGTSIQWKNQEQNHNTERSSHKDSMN
From the text: For instance the ETA receptor inhibitory activity can be determined by measuring the release of [^3 H]-inositol from [^3 H]-inositol labeled A7r5 cells, as previously described by Cioffi et at, J. Cardiovasc. Pharmacol. 22 (Suppl. 8), S-168 (1993).

[3] = system: ET-1 induced contractile response in isolated rabbit aorta; test: Inhibition of ET-1 induced contractile response in isolated rabbit aorta; details: 10 μM, 30 minute pretreatment
Protocol: as §1, §2

ETA receptor [4] = molecular target: T3, ETA receptor (Sus scrofa, UniProt Q29010); test: Inhibition of [^125 I] ET-1 binding to porcine thoracic aorta membranes
T3 construct: porcine thoracic aorta membranes (ETA receptor); from tissue; host or cells: porcine thoracic aorta membranes
T3 sequence (Q29010 21-427): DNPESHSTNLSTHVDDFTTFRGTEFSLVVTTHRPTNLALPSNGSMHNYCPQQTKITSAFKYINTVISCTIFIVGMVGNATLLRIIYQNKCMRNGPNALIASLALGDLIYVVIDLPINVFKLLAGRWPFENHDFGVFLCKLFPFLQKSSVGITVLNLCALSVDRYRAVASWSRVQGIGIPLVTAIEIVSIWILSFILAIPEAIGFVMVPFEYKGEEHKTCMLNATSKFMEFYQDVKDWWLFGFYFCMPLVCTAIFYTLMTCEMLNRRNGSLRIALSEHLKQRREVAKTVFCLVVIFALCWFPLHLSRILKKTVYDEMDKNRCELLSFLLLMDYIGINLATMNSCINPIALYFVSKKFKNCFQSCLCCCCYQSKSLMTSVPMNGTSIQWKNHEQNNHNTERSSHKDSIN
Protocol: as §3

Q: What does the source list for `COC(=O)C1=C(C)NC(C)=C(C(=O)OC(=O)C2=C(C)NC(C)=C(C(=O)OC)[C@@H]2c2cccc([N+](=O)[O-])c2)[C@@H]1c1cccc([N+](=O)[O-])c1` [Example 1, meso-1,4-dihydro-5-methoxycarbonyl-2,6-dimethyl-4-(3-nitrophenyl)-3-pyridine-carboxylic acid anhydride]?
A: antagonism of increase in blood pressure induced by ET-1 [1]: completely antagonizes; IC50 (ETB receptor): ~300 nM; IC50 (ETA receptor [2]): ~140 nM; inhibition of ET-1 induced contractile response [3]: 77%; IC50 (ETA receptor [4]): ~16 nM
